Our source for the CC50 and EC50 values is ChEMBL document CHEMBL1156829 (Proc Natl Acad Sci U S A, 2008).

Data set [1] can be described thus: NOVARTIS: Cytotoxicity against human hepatocellular carcinoma cell line (Huh7). Format: toxicity, cell-based, Huh-7. Conditions: Huh7 cells (hepatocellular carcinoma cell line).
The subject of data set [2] is Plasmodium falciparum. Put plainly: NOVARTIS: Inhibition of Plasmodium falciparum 3D7 (drug-susceptible) proliferation in erythrocyte-based infection assay. Format: functional, organism-based. Conditions: Plasmodium falciparum, 3D7.
The test system of data set [3] is Plasmodium falciparum. The data set can be described thus: NOVARTIS: Inhibition of Plasmodium falciparum W2 (drug-resistant) proliferation in erythrocyte-based infection assay. Conditions: Plasmodium falciparum, W2; read-out: EC50. Format: functional, organism-based.

The term CC50 denotes the concentration that lowers cell viability or growth by half. A higher CC50 goes with better tolerance by the cells. Usually EC50 stands for the concentration at which the effect is half-maximal. Compound `CCN(CC)CCNC(=O)C1c2ccccc2C(=O)N(Cc2ccc(F)cc2)C1c1ccc(OC)cc1` (centres undefined) had a CC50 in data set [1] of 46400 nM. Further, the EC50 was found to be 782 nM in the data set on Plasmodium falciparum [2] and 2420 nM in the data set with Plasmodium falciparum [3].
For `CC(C)Nc1ccc(Nc2ccnc3cc4ccccc4cc23)cc1`, in that order: 5400 nM, 31.8 nM and 276 nM.
For `c1ccc(-c2nc(-c3ccc4cccnc4c3)n(-n3c(-c4ccc5cccnc5c4)nc(-c4ccccc4)c3-c3ccccc3)c2-c2ccccc2)cc1`, in that order: 29100 nM, 3640 nM and 1500 nM.
In data set [1], `Oc1cccc(-c2nc(-c3ccccc3)c(-c3ccc4oc5ccc(-c6[nH]c(-c7cccc(O)c7)nc6-c6ccccc6)cc5c4c3)[nH]2)c1` displayed a CC50 of 20400 nM. The values for the EC50 in the data set with Plasmodium falciparum [2] and in the data set with Plasmodium falciparum [3] were 2350 nM and 1010 nM, respectively.
For `Cc1ccc(Nc2nc(NN=Cc3ccc(-c4ccc([N+](=O)[O-])cc4)o3)nc(N3CCOCC3)n2)cc1Cl`, in that order: > 10000 nM, > 598 nM and 503 nM.
Consider `CCCCCCCCC(=O)N1CCN(C(CC)c2nc3ccccc3c(=O)n2C)CC1` (centres undefined), for which the CC50 in data set [1] is > 10000 nM. For the same compound, the EC50 amounted to 492 nM in the data set on Plasmodium falciparum [2] and 500 nM in the data set with Plasmodium falciparum [3].
The compound `CCC(C(=O)N(C)CCCNc1ccnc2cc(Cl)ccc12)c1ccccc1` (centres undefined) registered a CC50 in data set [1] of 6170 nM. The EC50 amounted to 311 nM in the data set on Plasmodium falciparum [2] and 310 nM in the data set with Plasmodium falciparum [3].
For `c1ccc(CCCNc2ccnc3cc4ccccc4cc23)cc1`, in that order: 4140 nM, 199 nM and 209 nM.
The corresponding values for `COc1ccc(CN2C[C@H](Sc3nc4ccccc4[nH]3)C[C@H]2C(=O)NC2CC2)cc1C` are 16500 nM, 545 nM and 830 nM.
The corresponding values for `Cc1cc(N2CCC(N(C)C3CCCC3)CC2)nc2cc(O)ccc12` are 25500 nM, 312 nM and 1290 nM.
For `CCCN1CCC(N2C[C@@H](NCc3ccc4c(c3)c3ccccc3n4CC)C[C@H]2C(=O)NCC)CC1`, the CC50 in data set [1] is > 6380 nM. For the same compound, the EC50 was > 252 nM with Plasmodium falciparum [2] and 323 nM with Plasmodium falciparum [3].
The corresponding values for `CC(C)(C)C1=CC(=C2C=C(C(C)(C)C)SC(C(C)(C)C)=C2)C=C(C(C)(C)C)S1` are > 10000 nM, 805 nM and 506 nM.
The corresponding values for `CON(C)C=C(C(=O)Nc1ccc(C(F)(F)F)cc1)C(=O)Nc1ccc(C(F)(F)F)cc1` are > 10000 nM, 659 nM and 515 nM.
For `CN(Cc1ccccc1)c1cc(-c2ccccn2)nc(-c2ccccn2)n1`, in that order: > 10000 nM, 531 nM and 514 nM.
For `CC(CCCO)Nc1ccnc2cc(Cl)ccc12` (centres undefined), the CC50 in data set [1] is > 10000 nM. Moreover, the EC50 turned out to be 561 nM in the data set with Plasmodium falciparum [2] and 513 nM in the data set on Plasmodium falciparum [3].
`CCCCCCCCC(=O)NCCCCNc1ccnc2cc(Cl)ccc12` had a CC50 in data set [1] of 5600 nM. Moreover, the EC50 is 1140 nM in the data set on Plasmodium falciparum [2] and 286 nM in the data set on Plasmodium falciparum [3].
The corresponding values for `Cc1ccc2[nH]c3c(NCCc4ccccc4F)ncnc3c2c1` are 16500 nM, 835 nM and 843 nM.
For `CCN(CC)CCCNC(=S)N(CCN(CC)CC)Cc1cc2ccc(C)c(C)c2[nH]c1=O`, in that order: 51100 nM, 3280 nM and > 2610 nM.
For `CN(Cc1ccccc1)c1nc2c(c(=O)[nH]c(=O)n2C)n1CCCSc1ncccn1`, in that order: > 100000 nM, > 12500 nM and 5190 nM.
`CC(=O)c1c(C)oc2ccc(NS(=O)(=O)c3cccc(C(=O)O)c3)cc12`: in data set [1], the CC50 was > 10000 nM. The EC50 in the data set with Plasmodium falciparum [2] was > 1250 nM; in the data set on Plasmodium falciparum [3], > 515 nM.
The corresponding values for `Cc1nc(CC(=O)N2CCCC(CNC(=O)C3(c4ccc(Cl)cc4)CC3)C2)cs1` (centres undefined) are > 100000 nM, > 12500 nM and 5020 nM.
The corresponding values for `COc1cccc(N2CCN(CCNCCOc3ccccc3)[C@@H](Cc3ccccc3)C2)c1` are > 7310 nM, 703 nM and 383 nM.
Compound `Clc1cccc(CCNC2CCN(CCc3ccccc3)CC2)c1` displayed a CC50 in data set [1] of 12400 nM. The EC50 with Plasmodium falciparum [2] was 170 nM; in the data set on Plasmodium falciparum [3], 651 nM.
The corresponding values for `Oc1ccc(-c2ccnc3cc(Cl)ccc23)cc1CNCCN1CCOCC1` are > 11900 nM, 984 nM and 622 nM.
With `COc1ccc(C2(C(=O)NCc3ccccc3Cl)CCCC2)cc1OC`, the CC50 in data set [1] was > 100000 nM. Moreover, the 50% effective concentration (EC50) in the data set with Plasmodium falciparum [2] was determined as 12000 nM; in the data set with Plasmodium falciparum [3] it was 5220 nM.
The corresponding values for `COc1ccc(C(=O)N(CCCC(C)Nc2cc(OC)cc3cccnc23)Cc2ccccc2OC)cc1` (centres undefined) are 5180 nM, 713 nM and 270 nM.
Turning to `N#CCCN(CC1CCCO1)C(=O)Nc1ccc(Cl)c(C(F)(F)F)c1` (centres undefined), the CC50 in data set [1] was > 10000 nM. Also, the concentration for a half-maximal effect (EC50) in the data set with Plasmodium falciparum [2] is > 1020 nM; in the data set with Plasmodium falciparum [3], > 523 nM.
The corresponding values for `COc1ccc(Nc2c3c(nc4ccc(NC(=O)c5cc(=O)c6ccccc6o5)cc24)CCCC3)cc1OC` are 11100 nM, 303 nM and 558 nM.
The corresponding values for `CC(=O)Nc1ccc2c(c1)C(=O)N(C(CC(C)C)C(=O)NCC(=O)O)[C@@H](CCC(=O)OCc1ccccc1)C(=O)N2` (some centres undefined) are > 10000 nM, 48.2 nM and > 503 nM.
Regarding `CCN(CC)CCCC(C)NCc1ccc(OCc2ccccc2)c(OC)c1` (centres undefined), the CC50 in data set [1] is > 10000 nM. For the same compound, the concentration for a half-maximal effect (EC50) is 771 nM in the data set with Plasmodium falciparum [2] and 494 nM with Plasmodium falciparum [3].
For `OC(CNC1CCN(Cc2ccccc2)CC1)COc1ccc(Br)cc1` (centres undefined), in that order: > 10000 nM, 745 nM and 499 nM.
For `CCCCCCCCCn1c2c(c(=N)c3c1CCC3)CCCC2`, in that order: 3740 nM, 132 nM and 185 nM.
For `Cc1ccc(S(=O)(=O)N=C2C=C(Sc3nc4ccccc4[nH]3)C(=O)c3ccccc32)cc1`, in that order: 16800 nM, 632 nM and 834 nM.
For the compound `CC(C)(C)CC(C)(C)Nc1c(-c2ccccc2OC(=O)c2ccco2)nc2ccccn12`, the CC50 in data set [1] is > 100000 nM. Also, the EC50 in the data set with Plasmodium falciparum [2] is > 12500 nM; in the data set with Plasmodium falciparum [3] it was 4960 nM.
For `CCN1C=C(c2ccc(C)cc2)S/C1=C\c1sc2ccccc2[n+]1C`, in that order: 18800 nM, 362 nM and 938 nM.
The corresponding values for `COc1ccc(-c2ccc3c(N)c(C(=O)NCCc4ccccc4)sc3n2)cc1OC` are > 100000 nM, > 10800 nM and 4970 nM.
For `Cc1cc(N2CCN(C)CC2)nc2ccc(NC(=O)c3ccc(Br)o3)cc12`, in that order: 53700 nM, 1680 nM and 2680 nM.
Take `CCN(Cc1ccccc1)Cc1c(O)ccc2oc(C)c(C(=O)Nc3ccc(C)cc3C)c12`: the CC50 in data set [1] was 42300 nM. The EC50 in the data set on Plasmodium falciparum [2] turned out to be 3490 nM; in the data set with Plasmodium falciparum [3] it was 2100 nM.
On to `CCC(Sc1nc(C)cc(-c2ccccc2)n1)C(=O)Nc1cccc2ccccc12` (centres undefined), for which, in data set [1], the CC50 is > 10000 nM. Further, the EC50 in the data set on Plasmodium falciparum [2] is > 1250 nM; with Plasmodium falciparum [3] it was 496 nM.
The corresponding values for `Cc1nn(C(=O)NS(=O)(=O)c2ccccc2Cl)c(C)c1C` are > 10000 nM, > 810 nM and > 496 nM.
Take `N=c1c2c(n(Cc3ccc(Cl)c(Cl)c3)c3c1CCC3)CCCC2`: in data set [1], the half-maximal cytotoxic concentration (CC50) was > 10000 nM. Further, the EC50 in the data set with Plasmodium falciparum [2] was 503 nM; in the data set on Plasmodium falciparum [3] it was 506 nM.
As for `N#Cc1cc(-c2cccc(C(F)(F)F)c2)cn(Cc2c(Cl)cccc2Cl)c1=O`, in data set [1], the CC50 was > 100000 nM. Moreover, the results for the EC50 in the data set on Plasmodium falciparum [2] and in the data set on Plasmodium falciparum [3] were > 7430 nM and 5080 nM, respectively.
On to `CCOC(=O)c1ccc(NC(=O)c2cc3ccccn3n2)cc1`, for which the CC50 in data set [1] is > 10000 nM. In addition, the EC50 in the data set with Plasmodium falciparum [2] is > 1250 nM; in the data set with Plasmodium falciparum [3], > 500 nM.
With `C=CCNc1ncnc2c1c(-c1ccccc1)cn2-c1ccccc1`, the CC50 in data set [1] was > 100000 nM. In addition, the EC50 was found to be 4520 nM in the data set with Plasmodium falciparum [2] and 5220 nM in the data set with Plasmodium falciparum [3].
For `C=CCSc1oc(-c2ccco2)nc1[P+](c1ccccc1)(c1ccccc1)c1ccccc1`, in that order: 8420 nM, 310 nM and 416 nM.
As to `COc1cc(NC(C)CCCN(Cc2ccc(N(C)C)cc2)C(=O)c2ccc(F)cc2)c2ncccc2c1` (centres undefined), in data set [1], the CC50 was > 10000 nM. For the same compound, the EC50 in the data set on Plasmodium falciparum [2] was > 630 nM; with Plasmodium falciparum [3] it was 501 nM.
The corresponding values for `CN(C)CCCNCc1cc(-c2cccnc2)ccc1O` are > 10000 nM, 241 nM and 514 nM.
For `OC(CN1CCN(C2c3ccccc3-c3ccccc32)CC1)Cn1c2ccc(Br)cc2c2cc(Br)ccc21` (centres undefined), in that order: > 100000 nM, > 11300 nM and 5080 nM.
The corresponding values for `CCN1/C(=C/c2sc3ccc(OC)cc3[n+]2CC)C=Cc2cc(C)ccc21` are > 10000 nM, 431 nM and 508 nM.
Take `Oc1ncnc2c1C(c1ccccc1)c1c(O)ncnc1O2`: the CC50 in data set [1] is > 8830 nM. The EC50 in the data set with Plasmodium falciparum [2] is > 882 nM; with Plasmodium falciparum [3], > 462 nM.
The corresponding values for `CC(=O)N1CCNC1=Nc1c(Cl)nc(C)nc1Cl` are > 10000 nM, 444 nM and 498 nM.
The corresponding values for `O=C(NCCc1ccc(-c2ccccc2)cc1)c1ccc(NS(=O)(=O)C(F)(F)F)cc1` are > 8730 nM, > 1250 nM and > 439 nM.
`Cc1ccc(-c2cn3ccccc3[n+]2CC(=O)c2ccc(Cl)cc2)cc1[N+](=O)[O-]`: the CC50 in data set [1] was > 10000 nM. Besides, the EC50 was found to be 369 nM in the data set on Plasmodium falciparum [2] and 506 nM in the data set on Plasmodium falciparum [3].
